Laboratory results published in patent publication US10988433B2, “Cyclohexyl GPR40 agonists for the treatment of type II diabetes” (Janssen Pharmaceutica NV, priority 2016, dated 2021).

Assays:
human GPR40 = molecular target: T1, human GPR40 (Homo sapiens, UniProt O14842); assay: GPR40 calcium flux assay, HEK293 cells stably expressing human GPR40; type: cell-based; conditions: transfected HEK293 cells stably expressing human GPR40, Fluo 8 dye, read-out: hGPR40 Ca2+ Assay EC50
T1 construct: expressed in transfected cells
Description: (§1) Compounds were tested in a calcium flux assay using transfected HEK293 cells stably expressing either human GPR40 or rat GPR40. Human GPR40 expressing cells were cultured in DMEM-High Glucose media supplemented with 10% fetal bovine serum, 1×L-Glutamine, 1×Penicillin/Streptomycin and 500 μg/mL G418. Rat GPR40 expressing cells were cultured in DMEM-High Glucose media supplemented with 10% fetal bovine serum and 1 μg/mL puromycin. Cells were plated into poly-D-lysine coated 384-well plates and cultured overnight in a 37° C. humidified tissue culture incubator under 5% CO2/[…] atmosphere. On the day of the experiment, the culture media was replaced with assay buffer (HBSS, 20 mM HEPES, 0.1% BSA) and the cells incubated at 37° C. for 1 h. Calcium-sensitive fluorescent dye (Fluo 8 No-Wash Calcium Dye, ABD Bioquest) was then added and the cells incubated for another 30 min at 37° C. followed by 15 min at room temperature while protected from the light. The cell plate and a plate of diluted compounds of Formula (I) were loaded into a fluorescent plate reader that added compounds onto the cells while measuring the fluorescence intensity of each well. The plate reader recorded fluorescence intensity at 1 second intervals for 8 min and provided the data for analysis in an Excel format. EC50 values were calculated using Prism (GraphPad) software.

rat GPR40 = molecular target: T2, rat GPR40 (Rattus norvegicus, UniProt Q8K3T4); assay: GPR40 calcium flux assay, HEK293 cells stably expressing rat GPR40; type: cell-based; conditions: transfected HEK293 cells stably expressing rat GPR40, Fluo 8 dye, read-out: rGPR40 Ca2+ Assay EC50
T2 construct: expressed in transfected cells
Description: as §1

T1 sequence (O14842 whole entry): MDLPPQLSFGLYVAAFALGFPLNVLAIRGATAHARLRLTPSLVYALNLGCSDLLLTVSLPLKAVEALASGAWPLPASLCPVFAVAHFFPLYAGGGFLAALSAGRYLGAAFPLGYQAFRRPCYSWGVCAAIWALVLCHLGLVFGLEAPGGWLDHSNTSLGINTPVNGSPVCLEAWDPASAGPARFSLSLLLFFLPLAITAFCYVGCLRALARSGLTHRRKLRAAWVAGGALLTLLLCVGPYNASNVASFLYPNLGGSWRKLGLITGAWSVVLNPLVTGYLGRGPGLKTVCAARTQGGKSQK
T2 sequence (Q8K3T4 whole entry): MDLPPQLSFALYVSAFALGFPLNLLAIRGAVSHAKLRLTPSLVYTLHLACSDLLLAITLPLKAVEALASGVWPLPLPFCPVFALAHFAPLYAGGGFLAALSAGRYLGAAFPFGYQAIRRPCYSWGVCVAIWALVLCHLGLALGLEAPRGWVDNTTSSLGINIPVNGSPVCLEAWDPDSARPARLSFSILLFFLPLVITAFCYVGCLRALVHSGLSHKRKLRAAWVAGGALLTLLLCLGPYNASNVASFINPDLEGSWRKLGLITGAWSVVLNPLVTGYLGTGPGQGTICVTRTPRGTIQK

Compound | EC50 (human GPR40) [nM] | EC50 (rat GPR40) [nM]
COc1cc(C2CCC(COc3cccc([C@H](C4CC4)C(C)(F)C(=O)O)c3)CC2)ccn1 (mixture of isomers) [Cpd 69, (3S)-3-Cyclopropyl-2-fluoro-3-(3-((4-(2-methoxypyridin-4-yl)cyclohexyl)methoxy)phenyl)-2-methylpropanoic acid] | 1.2 | 1.5
COc1ccc(F)c([C@H]2CC[C@H](COc3cccc(C(CC(=O)O)C4CC4)n3)CC2)c1 (mixture of isomers) [Cpd 13, 3-Cyclopropyl-3-(6-(((1r,4r)-4-(2-fluoro-5-methoxyphenyl)cyclohexyl)methoxy)pyridin-2-yl)propanoic acid] | 32.7 | 143
COc1ccc(F)c([C@H]2CC[C@H](COc3cccc(C(CC(=O)O)C4CC4)c3)CC2)c1 (mixture of isomers) [Cpd 56, 3-Cyclopropyl-3-(3-(((1r,4r)-4-(2-fluoro-5-methoxyphenyl)cyclohexyl)methoxy)phenyl) propanoic acid] | 3 | 14.4
CC(F)(C(=O)O)[C@H](c1cccc(OCC2CCC(c3cc(F)ncc3F)CC2)c1)C1CC1 (mixture of isomers) [Cpd 67, (3S)-3-Cyclopropyl-3-(3-((4-(2,5-difluoropyridin-4-yl)cyclohexyl)methoxy)phenyl)-2-fluoro-2-methylpropanoic acid] | 1.7 | 12
COc1ccc(F)c([C@H]2CC[C@H](COc3cccc([C@H](C4CC4)C(C)C(=O)O)c3)CC2)c1 (single isomer, unassigned) [Cpd 51] | 2.2 | 4.9
COc1ccc(F)c([C@]2(O)CC[C@@H](COc3cccc([C@@H](CC(=O)O)C4CC4)c3)CC2)c1 [Cpd 3, (S)-3-Cyclopropyl-3-(3-(((1s,4R)-4-(2-fluoro-5-methoxyphenyl)-4-hydroxycyclohexyl)methoxy)phenyl)propanoic acid] | 24.8 | 160
COc1ccc(F)c([C@H]2CC[C@H](COc3cc(C(CC(=O)O)C4CC4)ccn3)CC2)c1 (stereo partly shown) [Cpd 4, 3-Cyclopropyl-3-(2-(((1r,4r)-4-(2-fluoro-5-methoxyphenyl)cyclohexyl)methoxy)pyridin-4-yl) propanoic acid] | 0.7 | 2.6
COc1ccc(F)c([C@H]2CC[C@@H](COc3cc(C(CC(=O)O)C4CC4)ccn3)CC2)c1 (stereo partly shown) [Cpd 5, 3-Cyclopropyl-3-(2-(((1 s,4s)-4-(2-fluoro-5-methoxyphenyl)cyclohexyl)methoxy)pyridin-4-yl)propanoic acid] | 75.6 | 146
COc1ccc(F)c([C@]2(O)CC[C@H](COc3cccc([C@@H](CC(=O)O)C4CC4)c3)CC2)c1 [Cpd 6, (S)-3-Cyclopropyl-3-(3-(((1r,4S)-4-(2-fluoro-5-methoxyphenyl)-4-hydroxycyclohexyl)methoxy)phenyl)propanoic acid] | 377 | 
COc1cc([C@H]2CC[C@@H](COc3cc(C(CC(=O)O)C4CC4)ccn3)CC2)c(F)cn1 (stereo partly shown) [Cpd 7, 3-Cyclopropyl-3-(2-(((1s,4s)-4-(5-fluoro-2-methoxypyridin-4-yl)cyclohexyl)methoxy)pyridin-4-yl)propanoic acid] | 34.7 | 79.8
COc1cc([C@H]2CC[C@H](COc3cc(C(CC(=O)O)C4CC4)ccn3)CC2)c(F)cn1 (stereo partly shown) [Cpd 8, 3-Cyclopropyl-3-(2-(((1r,4r)-4-(5-fluoro-2-methoxypyridin-4-yl)cyclohexyl)methoxy)pyridin-4-yl)propanoic acid] | 0.5 | 1.4
COc1cc([C@H]2CC[C@H](COc3cccc([C@@H](CC(=O)O)C4CC4)c3)CC2)c(F)cn1 [Cpd 9, (S)-3-Cyclopropyl-3-(3-(((1r,4S)-4-(5-fluoro-2-methoxypyridin-4-yl)cyclohexyl)methoxy)phenyl)propanoic acid] | 0.5 | 2.8
COc1cc([C@H]2CC[C@@H](COc3cccc([C@@H](CC(=O)O)C4CC4)c3)CC2)c(F)cn1 [Cpd 10, (S)-3-Cyclopropyl-3-(3-(((1s,4R)-4-(5-fluoro-2-methoxypyridin-4-yl)cyclohexyl)methoxy)phenyl)propanoic acid] | 26.9 | 76
COc1ccc(F)c([C@]2(OC)CC[C@@H](COc3cccc([C@@H](CC(=O)O)C4CC4)c3)CC2)c1 [Cpd 11, (S)-3-Cyclopropyl-3-(3-(((1s,4R)-4-(2-fluoro-5-methoxyphenyl)-4-methoxycyclohexyl)methoxy)phenyl)propanoic acid] | 2.1 | 18.4
COc1ccc(F)c([C@]2(OC)CC[C@H](COc3cccc([C@@H](CC(=O)O)C4CC4)c3)CC2)c1 [Cpd 12, (S)-3-Cyclopropyl-3-(3-(((1r,4S)-4-(2-fluoro-5-methoxyphenyl)-4-methoxycyclohexyl)methoxy)phenyl)propanoic acid] | 13.8 | 152
COc1ccc(F)c([C@H]2CC[C@@H](COc3cccc(C(CC(=O)O)C4CC4)n3)CC2)c1 (stereo partly shown) [Cpd 14, 3-Cyclopropyl-3-(6-(((1 s,4s)-4-(2-fluoro-5-methoxyphenyl)cyclohexyl)methoxy)pyridin-2-yl)propanoic acid] | 1500 | 
COc1cc([C@H]2CC[C@H](COc3cccc(C(CC(=O)O)C4CC4)n3)CC2)c(F)cn1 (stereo partly shown) [Cpd 15, 3-Cyclopropyl-3-(6-(((1r,4r)-4-(5-fluoro-2-methoxypyridin-4-yl)cyclohexyl)methoxy)pyridin-2-yl)propanoic acid] | 138 | 
COc1cc([C@H]2CC[C@@H](COc3cccc(C(CC(=O)O)C4CC4)n3)CC2)c(F)cn1 (stereo partly shown) [Cpd 16, 3-Cyclopropyl-3-(6-(((1s,4s)-4-(5-fluoro-2-methoxypyridin-4-yl)cyclohexyl)methoxy)pyridin-2-yl)propanoic acid] | 3080 | 
COc1ccc(F)c([C@H]2CC[C@H](COc3cccc([C@@H](Cc4nnn[nH]4)C4CC4)c3)CC2)c1 [Cpd 17, 5-((S)-2-Cyclopropyl-2-(3-(((1r,4S)-4-(2-fluoro-5-methoxyphenyl)cyclohexyl)methoxy)phenyl)ethyl)-1H-tetrazole] | 44.3 | 388
COc1ccc(F)c([C@H]2CC[C@@H](COc3cncc(C(CC(=O)O)C4CC4)c3)CC2)c1 (stereo partly shown) [Cpd 18, 3-Cyclopropyl-3-(5-(((1s,4s)-4-(2-fluoro-5-methoxyphenyl)cyclohexyl)methoxy)pyridin-3-yl)propanoic acid] | 226 | 
COc1ccc(F)c([C@]2(F)CC[C@H](COc3cccc([C@@H](CC(=O)O)C4CC4)c3)CC2)c1 [Cpd 19, (S)-3-Cyclopropyl-3-(3-(((1r,4S)-4-fluoro-4-(2-fluoro-5-methoxyphenyl)cyclohexyl)methoxy)phenyl)propanoic acid] | 82.5 | 211
COc1ccc(F)c([C@]2(F)CC[C@@H](COc3cccc([C@@H](CC(=O)O)C4CC4)c3)CC2)c1 [Cpd 20, (S)-3-Cyclopropyl-3-(3-(((1s,4R)-4-fluoro-4-(2-fluoro-5-methoxyphenyl)cyclohexyl)methoxy)phenyl)propanoic acid] | 9.9 | 40.7
COc1ccc(F)c([C@H]2CC[C@H](COc3cncc(C(CC(=O)O)C4CC4)c3)CC2)c1 (stereo partly shown) [Cpd 21, 3-Cyclopropyl-3-(5-(((1r,4r)-4-(2-fluoro-5-methoxyphenyl)cyclohexyl)methoxy)pyridin-3-yl)propanoic acid] | 12 | 35.3
COc1cc([C@H]2CC[C@H](COc3cncc(C(CC(=O)O)C4CC4)c3)CC2)c(F)cn1 (stereo partly shown) [Cpd 22, 3-Cyclopropyl-3-(5-(((1r,4r)-4-(5-fluoro-2-methoxypyridin-4-yl)cyclohexyl)methoxy)pyridin-3-yl)propanoic acid] | 17.6 | 51.9
COc1cc([C@H]2CC[C@@H](COc3cncc(C(CC(=O)O)C4CC4)c3)CC2)c(F)cn1 (stereo partly shown) [Cpd 23, 3-Cyclopropyl-3-(5-(((1s,4s)-4-(5-fluoro-2-methoxypyridin-4-yl)cyclohexyl)methoxy)pyridin-3-yl)propanoic acid] | 307 | 
COc1cc([C@H]2CC[C@H](COc3cc([C@H](CC(=O)O)C4CC4)ccn3)CC2)c(F)cn1 [Cpd 24, (R)-3-Cyclopropyl-3-(2-(((1r,4R)-4-(5-fluoro-2-methoxypyridin-4-yl)cyclohexyl)methoxy)pyridin-4-yl)propanoic acid] | 8.4 | 20.7
COc1ccc(F)c([C@H]2CC[C@H](COc3cc([C@H](CC(=O)O)C4CC4)ccn3)CC2)c1 [Cpd 26, (R)-3-cyclopropyl-3-(2-(((1r,4r)-4-(2-fluoro-5-methoxyphenyl)cyclohexyl)methoxy)pyridin-4-yl)propanoic acid] | 10.9 | 19.8
COc1ccc(F)c([C@H]2CC[C@H](/C=C/c3cccc([C@@H](CC(=O)O)C4CC4)c3)CC2)c1 [Cpd 28, (S)-3-cyclopropyl-3-(3-((E)-2-((1r,4S)-4-(2-fluoro-5-methoxyphenyl)cyclohexyl)vinyl)phenyl)propanoic acid] | 2.6 | 6.1
COc1ccc(F)c(C2CCC(COc3cccc([C@@H](CC(=O)O)C4CC4)c3)C(CC(C)C)C2)c1 (stereo partly drawn) [Cpd 29, (3S)-3-Cyclopropyl-3-(3-((4-(2-fluoro-5-methoxyphenyl)-2-isobutylcyclohexyl)methoxy)phenyl)propanoic acid] | 17.9 | 40.9
